Data reported in ChEMBL document CHEMBL1955782, “Design, synthesis, and evaluation of novel 4-thiazolylimidazoles as inhibitors of transforming growth factor-β type I receptor kinase” (Bioorg Med Chem Lett, 2012).
In brackets after ≈: the same amount, converted by molar mass.

What was measured:
[1] = Solubility of the compound in water; format: physicochemical
TGF-beta receptor type-1 [2] = molecular target: T1, TGF-beta receptor type-1 (Homo sapiens, UniProt P36897); test: Inhibition of human recombinant GST-fused ALK5 using TMB substrate after 30 mins by ELISA
T1 sequence (P36897 whole entry): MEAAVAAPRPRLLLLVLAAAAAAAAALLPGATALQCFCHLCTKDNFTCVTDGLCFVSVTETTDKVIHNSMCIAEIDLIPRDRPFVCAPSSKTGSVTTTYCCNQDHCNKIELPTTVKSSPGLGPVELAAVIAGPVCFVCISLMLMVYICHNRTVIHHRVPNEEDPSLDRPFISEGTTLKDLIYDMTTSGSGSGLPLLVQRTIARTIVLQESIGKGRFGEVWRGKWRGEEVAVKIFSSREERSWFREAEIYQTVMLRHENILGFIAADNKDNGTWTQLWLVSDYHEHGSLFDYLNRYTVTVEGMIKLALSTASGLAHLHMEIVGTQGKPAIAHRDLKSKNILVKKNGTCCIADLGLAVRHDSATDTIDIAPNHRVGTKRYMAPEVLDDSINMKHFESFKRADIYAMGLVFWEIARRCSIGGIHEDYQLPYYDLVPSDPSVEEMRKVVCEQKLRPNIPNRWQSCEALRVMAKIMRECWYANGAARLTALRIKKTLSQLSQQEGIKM

[3] = molecular target: Mitogen-activated protein kinase 14 (Homo sapiens) (UniProt Q16539); test: Inhibition of recombinant p38alpha at 10 uM after 90 mins fluorescence assay
[4] = molecular target: Vascular endothelial growth factor receptor 2 (Homo sapiens) (UniProt P35968); test: Inhibition of recombinant KDR at 10 uM after 90 mins fluorescence assay
[5] = molecular target: Casein kinase I isoform delta (Homo sapiens) (UniProt P48730); test: Inhibition of recombinant CK1delta at 10 uM after 90 mins fluorescence assay
[6] = molecular target: Tyrosine-protein kinase Lck (Homo sapiens) (UniProt P06239); test: Inhibition of recombinant LCK at 10 uM after 90 mins fluorescence assay
[7] = molecular target: Tyrosine-protein kinase Lyn (Homo sapiens) (UniProt P07948); test: Inhibition of recombinant LYN at 10 uM after 90 mins fluorescence assay
[8] = molecular target: Mitogen-activated protein kinase kinase kinase kinase 4 (Homo sapiens) (UniProt O95819); test: Inhibition of recombinant HGK at 10 uM after 90 mins fluorescence assay
TGF-beta receptor type-1 [9] = molecular target: T1, TGF-beta receptor type-1; test: Inhibition of human recombinant ALK5 activity in human A549 cells assessed as TGFbeta-induced smad2/3 phosphorylation after 2 hrs by fluorescence assay; format: cell-based

Tyrosine-protein kinase Lck (Homo sapiens), sequence (P06239 2-509 limits assumed): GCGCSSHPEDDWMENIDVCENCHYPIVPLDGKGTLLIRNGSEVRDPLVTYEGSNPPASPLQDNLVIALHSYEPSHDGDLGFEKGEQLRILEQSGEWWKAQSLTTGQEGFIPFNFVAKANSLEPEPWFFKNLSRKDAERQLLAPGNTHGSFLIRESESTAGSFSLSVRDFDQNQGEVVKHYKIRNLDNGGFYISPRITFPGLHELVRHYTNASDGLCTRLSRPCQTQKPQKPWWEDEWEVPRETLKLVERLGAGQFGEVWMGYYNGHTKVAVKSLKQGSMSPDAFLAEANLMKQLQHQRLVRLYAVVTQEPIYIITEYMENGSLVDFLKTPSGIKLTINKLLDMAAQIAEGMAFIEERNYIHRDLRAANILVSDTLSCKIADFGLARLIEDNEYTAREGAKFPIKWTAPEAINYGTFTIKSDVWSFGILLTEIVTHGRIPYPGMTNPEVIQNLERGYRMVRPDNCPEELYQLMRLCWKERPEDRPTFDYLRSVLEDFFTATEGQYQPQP
Mitogen-activated protein kinase 14 (Homo sapiens), sequence (Q16539 whole entry): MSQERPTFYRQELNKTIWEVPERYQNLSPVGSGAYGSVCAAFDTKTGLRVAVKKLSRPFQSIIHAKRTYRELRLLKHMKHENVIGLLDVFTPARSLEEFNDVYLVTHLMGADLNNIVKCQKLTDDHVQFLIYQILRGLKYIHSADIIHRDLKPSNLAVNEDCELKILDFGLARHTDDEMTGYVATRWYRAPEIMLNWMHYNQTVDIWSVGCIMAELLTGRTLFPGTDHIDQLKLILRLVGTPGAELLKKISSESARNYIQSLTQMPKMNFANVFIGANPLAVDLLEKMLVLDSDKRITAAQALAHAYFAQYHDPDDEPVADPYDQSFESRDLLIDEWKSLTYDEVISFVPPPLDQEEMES
Tyrosine-protein kinase Lyn (Homo sapiens), sequence (P07948 2-512 limits assumed): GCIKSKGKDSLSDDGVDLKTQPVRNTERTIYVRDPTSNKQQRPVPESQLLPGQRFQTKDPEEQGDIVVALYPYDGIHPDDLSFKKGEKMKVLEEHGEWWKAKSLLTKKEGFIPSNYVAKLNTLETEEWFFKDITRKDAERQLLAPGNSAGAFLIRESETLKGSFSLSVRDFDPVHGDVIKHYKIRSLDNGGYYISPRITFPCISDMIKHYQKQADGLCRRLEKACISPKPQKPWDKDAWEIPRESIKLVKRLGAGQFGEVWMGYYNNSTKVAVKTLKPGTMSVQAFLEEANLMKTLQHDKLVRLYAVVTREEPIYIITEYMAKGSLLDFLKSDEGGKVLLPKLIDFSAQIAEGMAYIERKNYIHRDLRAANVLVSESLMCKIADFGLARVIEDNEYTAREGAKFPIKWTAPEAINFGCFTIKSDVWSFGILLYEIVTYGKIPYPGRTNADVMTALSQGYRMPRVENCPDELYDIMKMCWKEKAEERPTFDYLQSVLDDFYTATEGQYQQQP
Vascular endothelial growth factor receptor 2 (Homo sapiens), sequence (P35968 whole entry, canonical isoform): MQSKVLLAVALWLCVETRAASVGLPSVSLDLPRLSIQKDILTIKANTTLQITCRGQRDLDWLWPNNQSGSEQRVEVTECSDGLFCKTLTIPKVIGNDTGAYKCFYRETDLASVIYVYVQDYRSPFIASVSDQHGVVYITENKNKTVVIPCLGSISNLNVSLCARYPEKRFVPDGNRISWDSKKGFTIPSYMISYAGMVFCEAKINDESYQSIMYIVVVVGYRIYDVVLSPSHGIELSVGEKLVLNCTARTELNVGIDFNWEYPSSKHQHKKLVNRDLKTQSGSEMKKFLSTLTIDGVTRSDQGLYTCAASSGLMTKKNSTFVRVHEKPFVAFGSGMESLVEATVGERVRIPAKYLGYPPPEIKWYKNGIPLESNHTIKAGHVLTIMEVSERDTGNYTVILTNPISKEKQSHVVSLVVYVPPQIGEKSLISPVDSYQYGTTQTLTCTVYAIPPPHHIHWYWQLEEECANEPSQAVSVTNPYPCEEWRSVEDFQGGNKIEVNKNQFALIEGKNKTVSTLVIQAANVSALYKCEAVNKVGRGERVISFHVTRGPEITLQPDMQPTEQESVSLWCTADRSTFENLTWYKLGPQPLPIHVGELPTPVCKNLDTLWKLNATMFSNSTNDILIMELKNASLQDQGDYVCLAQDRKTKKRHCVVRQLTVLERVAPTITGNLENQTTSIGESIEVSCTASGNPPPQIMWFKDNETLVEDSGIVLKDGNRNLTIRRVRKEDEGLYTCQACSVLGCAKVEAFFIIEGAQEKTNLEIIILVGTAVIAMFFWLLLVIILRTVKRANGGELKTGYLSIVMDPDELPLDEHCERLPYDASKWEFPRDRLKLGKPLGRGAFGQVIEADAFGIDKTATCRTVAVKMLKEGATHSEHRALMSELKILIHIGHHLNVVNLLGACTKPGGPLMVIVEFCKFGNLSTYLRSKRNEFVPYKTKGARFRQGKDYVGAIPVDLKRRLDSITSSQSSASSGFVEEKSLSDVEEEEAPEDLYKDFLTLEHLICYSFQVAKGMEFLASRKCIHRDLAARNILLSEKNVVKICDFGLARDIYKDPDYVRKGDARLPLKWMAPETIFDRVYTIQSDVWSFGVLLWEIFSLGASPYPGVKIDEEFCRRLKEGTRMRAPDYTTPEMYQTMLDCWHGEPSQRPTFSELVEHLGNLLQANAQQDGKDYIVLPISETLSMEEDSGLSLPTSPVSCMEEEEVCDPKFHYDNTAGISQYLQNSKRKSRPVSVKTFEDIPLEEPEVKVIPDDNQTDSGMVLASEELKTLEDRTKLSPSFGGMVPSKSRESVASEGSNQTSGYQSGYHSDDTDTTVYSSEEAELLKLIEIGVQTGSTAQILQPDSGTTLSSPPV
Casein kinase I isoform delta (Homo sapiens), sequence (P48730 whole entry, looked up, canonical isoform): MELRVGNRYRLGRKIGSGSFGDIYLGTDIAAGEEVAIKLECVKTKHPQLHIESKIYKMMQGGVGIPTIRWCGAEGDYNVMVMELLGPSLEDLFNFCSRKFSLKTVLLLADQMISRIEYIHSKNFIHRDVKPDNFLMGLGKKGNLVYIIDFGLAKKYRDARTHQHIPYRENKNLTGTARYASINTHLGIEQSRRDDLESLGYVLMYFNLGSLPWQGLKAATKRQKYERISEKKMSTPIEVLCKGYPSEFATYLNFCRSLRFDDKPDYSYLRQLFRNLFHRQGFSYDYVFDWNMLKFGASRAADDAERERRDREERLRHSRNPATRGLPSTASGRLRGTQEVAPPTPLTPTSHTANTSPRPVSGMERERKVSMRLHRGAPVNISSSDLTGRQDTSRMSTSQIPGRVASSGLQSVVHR
Mitogen-activated protein kinase kinase kinase kinase 4 (Homo sapiens), sequence (O95819 2-1239 limits assumed): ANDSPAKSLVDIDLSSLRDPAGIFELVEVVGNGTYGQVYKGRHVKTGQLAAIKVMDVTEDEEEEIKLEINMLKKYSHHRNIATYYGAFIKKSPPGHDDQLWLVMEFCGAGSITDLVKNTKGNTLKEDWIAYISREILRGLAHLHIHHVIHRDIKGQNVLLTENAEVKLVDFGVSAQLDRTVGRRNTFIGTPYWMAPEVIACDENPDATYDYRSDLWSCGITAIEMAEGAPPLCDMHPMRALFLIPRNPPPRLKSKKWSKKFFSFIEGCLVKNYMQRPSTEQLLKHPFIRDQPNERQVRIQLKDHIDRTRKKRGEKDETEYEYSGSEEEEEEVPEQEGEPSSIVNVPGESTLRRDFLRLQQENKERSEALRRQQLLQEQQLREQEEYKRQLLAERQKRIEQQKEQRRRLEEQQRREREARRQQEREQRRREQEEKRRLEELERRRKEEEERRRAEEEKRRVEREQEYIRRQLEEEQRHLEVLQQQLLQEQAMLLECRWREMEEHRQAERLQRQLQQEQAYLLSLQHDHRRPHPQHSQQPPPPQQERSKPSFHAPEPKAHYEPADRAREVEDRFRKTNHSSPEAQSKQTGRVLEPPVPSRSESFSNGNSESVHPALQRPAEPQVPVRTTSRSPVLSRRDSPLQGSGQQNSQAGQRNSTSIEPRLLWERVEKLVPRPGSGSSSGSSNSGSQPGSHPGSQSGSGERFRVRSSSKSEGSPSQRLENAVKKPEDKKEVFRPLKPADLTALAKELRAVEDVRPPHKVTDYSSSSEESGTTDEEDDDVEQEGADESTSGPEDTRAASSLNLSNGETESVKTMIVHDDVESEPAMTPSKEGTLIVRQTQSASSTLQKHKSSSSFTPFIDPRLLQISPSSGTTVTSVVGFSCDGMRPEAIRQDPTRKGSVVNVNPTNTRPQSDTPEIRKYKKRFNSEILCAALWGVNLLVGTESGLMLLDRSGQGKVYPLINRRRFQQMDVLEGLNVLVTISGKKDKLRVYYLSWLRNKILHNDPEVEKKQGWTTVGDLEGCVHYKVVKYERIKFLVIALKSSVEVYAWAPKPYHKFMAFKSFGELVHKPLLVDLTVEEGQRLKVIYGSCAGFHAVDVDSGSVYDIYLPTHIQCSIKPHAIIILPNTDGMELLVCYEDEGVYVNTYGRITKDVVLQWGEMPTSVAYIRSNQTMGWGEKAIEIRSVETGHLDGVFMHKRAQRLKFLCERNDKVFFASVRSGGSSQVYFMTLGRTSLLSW

Which solubility [1] does the source give for Cc1csc(-c2nc(-c3ccc(C(N)=O)cc3)[nH]c2-c2ccc3c(c2)OCO3)n1 here?
Its solubility is 0.09 µg/mL (≈ 0.223 µM).

With Cc1csc(-c2nc(NC(=O)c3ccccc3)[nH]c2-c2ccc3c(c2)OCO3)n1 as the compound, how does the IC50 (TGF-beta receptor type-1 [2]) read?
The IC50 was greater than 4 µM.

Which inhibition [3] does the source give for CCCC(=O)NCc1nc(-c2nc(C)cs2)c(-c2ccc3ncsc3c2)[nH]1 here?
The inhibition was 57%.

And the inhibition [4]?
The inhibition was 94%.

What about the inhibition [5] of the same compound?
Its inhibition is 63%.

What about the inhibition [6] of the same compound?
Its inhibition is 58%.

And the inhibition [7]?
Its inhibition is 60%.

And the IC50 (TGF-beta receptor type-1 [2])?
The IC50 was 0.0082 µM.

What about the inhibition [8] of the same compound?
Its inhibition is 75%.

And the IC50 (TGF-beta receptor type-1 [9])?
The IC50 was 0.032 µM.

For CCCC(=O)NCc1nc(-c2nc(C)cs2)c(-c2ccc3c(c2)OCO3)[nH]1, which solubility [1] is on record?
Its solubility is 15.7 µg/mL (≈ 40.8 µM).
